In general, Ki refers to a measure of affinity in units of concentration, obtained from inhibition or displacement. In general, Kd refers to the equilibrium constant for the complex coming apart.

For test [1], the target named is T1, APE-1 (Homo sapiens (Human), UniProt P27695). Nature of the test: Molecular beacon assay for APE-1 endonuclease inhibition. Format: biochemical. The settings on record: molecular beacon assay, endonuclease activity; read-out: Ki APE-1 endonuclease inhibition. The text has this: Screening Assays for APE1 Inhibition—The initial screen was designed to look at the effect of potential inhibitors on APE1 repair kinetics. The approach can be used as a high throughput screen by choosing a specific timepoint to monitor. The screen utilizes a molecular beacon with a tetrahydrofuran (THF) abasic site within the stem region of a DNA hairpin that has a fluorophore on the 5′-terminus and a quencher on the 3′-terminus (FIG. 2a). […] An example of the molecular beacon screen and the excision assay are shown in FIGS. 2b,c and 2d, respectively.
T1 sequence (P27695 whole entry): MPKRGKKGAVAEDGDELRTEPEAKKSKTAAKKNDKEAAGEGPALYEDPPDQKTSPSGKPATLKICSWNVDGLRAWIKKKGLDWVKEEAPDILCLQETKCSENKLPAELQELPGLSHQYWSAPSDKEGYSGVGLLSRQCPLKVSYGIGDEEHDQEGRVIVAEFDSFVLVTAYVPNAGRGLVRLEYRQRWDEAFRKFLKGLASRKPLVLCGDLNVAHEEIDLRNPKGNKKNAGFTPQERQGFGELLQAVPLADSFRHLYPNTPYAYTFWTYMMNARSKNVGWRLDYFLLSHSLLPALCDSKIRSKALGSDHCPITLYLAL
Molecular Beacon Assay for Screening of APE-1 Inhibitors. A fluorescence-based molecular beacon assay to measure APE-1 protein activity and inhibition was performed as described previously with some modifications. Tang et al. Neuro Oncol. 13, 471-486 (2011) APE-1 (2 nM) in 10 mM HEPES (pH 7.8) 0.5 mM MgCl, 100 mM NaCl, 100 mM KCl, 0.0005% (w/v) BSA, was incubated with 20 nM 5′-(F)-CGACTXTTGAATTGACACGCCATGTCGATCAATTCAATAGTCG-(D)-3′ [X=tetrahydrofuran (THF) abasic site modification; F, 6-carboxyfluorescein (6-FAM); and D, DABCYL] that forms a hairpin with a 15 base pair stem and a 13 base loop. The THF modification is a known substrate for APE-1 excision. APE-1 mediated cleavage of the phosphodiester backbone at the THF-abasic site led to release of the 5′ 6-FAM (fluorophore) containing pentanucleotide, disrupting the Förster Resonance Energy Transfer (FRET) mediated quenching of the 6-FAM by DABCYL in the native hairpin oligomer. Since the signal was generated by continuous liberation of the fluorophore-labeled excision fragment, progress of this reaction could be monitored in real-time using a Cary Eclipse fluorescence spectrometer (Varian, Palo Alto, Calif.) or a Synergy H1 multi-well plate reader (BioTek, Winooski, Vt.). Reactions were optimized to yield ˜90% substrate turnover in 10 min, and fluorescence intensities measured every 12 s at 495 nm excitation and 520 nm emission. Data from the first 1-3 min of the assays (linear phase) were used to determine rate of substrate turnover (V0). The Michaelis constant (KM) was deduced experimentally, by incubating 2 nM APE-1 protein with 2-500 nM hairpin DNA substrate and measuring V0 —the experimentally observed V0 were analyzed as a function of substrate concentration [S] via non-linear regression using Prism (v.4; GraphPad Software, Inc., La Jolla, Calif.) and the KM was calculated as per the algorithm in the software package. To assay inhibition, 2 nM APE-1 protein was pre-incubated with 0.05-10.00 μM of the candidate inhibitors at 25° C. for 60 min, before initiating the excision assay by addition of hairpin DNA substrate. V0 was calculated at various concentrations of inhibitors and represented as inverse function of increasing inhibitor concentration [I]. […] All assays were carried out in three independent sets to obtain mean data and standard error of mean.
(§1) Screening for APE-1 Inhibitors. […] In this assay, the DNA hairpin substrate has a 6-FAM fluorophore on the 5′-terminus, a DABACYL fluorescence quencher on the 3′-terminus and a THF abasic site located 6 base pairs from the 5′-terminus in the stem region (FIG. 6). APE-1 activity is monitored as an increase in fluorescence due to the release of the 5′-(6-FAM)-GCACT fragment as a function of time. […] In this assay, substrate turnover was calculated from relative intensities of cleaved vs. intact oligomers and correlated with inhibitor concentration.

The target in test [2] is T1, APE-1. As to the kind of experiment: Gel-based excision assay for APE-1 inhibitors. Format: biochemical. The note with it: APE-1 cleaved fragment vs. full length DNA substrate. As for the experimental part: as §1
Test [3] concerns the target APE-1 activity in T98G cell nuclear lysates (Homo sapiens (Human), UniProt P27695). Nature of the test: Molecular beacon assay in T98G cell nuclear extracts. It is filed as biochemical. Here is the method: Isolation and Assay of APE-1 Protein from Nuclear Extracts of Glioma Cells. Human glioblastoma cells (T98G) were maintained in growth medium, i.e., Eagle's Minimum Essential Medium (EMEM) with 10% fetal bovine serum (FBS), […] gentamycin, 1×MEM non-essential amino acids and 1 mM sodium pyruvate. Cells were harvested by Trypsin-EDTA treatment, washed with 1×PBS and nuclear proteins isolated using the CelLytic NuCLEAR Extraction kit (Sigma-Aldrich) as per manufacturer's instructions. Isolated nuclear proteins were estimated colorimetrically (BCA protein assay) and stored at −80° C. (long term) or at −20° C. during regular use. To assay APE-1 activity in T98G cells, nuclear extracts were serially diluted in 10 mM HEPES, 50 mM KCl, 1 mM DTT, 20% (v/v) glycerol and the activities measured via the molecular beacon assay (as described above). […] EC2 nM of nuclear extracts was incubated with 2 to 500 nM hairpin DNA substrate and the V0 measured for each value of [S]. Finally, the apparent KM* was deduced using the software algorithm in Prism (as described previously), and the KM* was used to determine the apparent Ki*. Inhibition of EC2 nM APE-1 activity by the inhibitors was assayed via the molecular beacon assay (described above).
Inhibition of APE-1 Activity in Nuclear Lysates. The ability of 1-5 and 8 to block APE-1 endonuclease activity in a complex mixture of proteins from T98G cell nuclear lysates was tested using the molecular beacon assay. The APE-1 activity in the lysates was standardized to give ˜90% turnover of 25 nM substrate in 10 min.

Test [4] deals with T98G cells. As to the kind of experiment: Long term (10-day) CyQUANT cytotoxicity assay. It is filed as cell-based, human. As for the experimental part: (§2) Cytotoxic Effects of APE-1 Inhibitors on Cultured Human Glioblastoma (T98G) Cells. Human glioblastoma cells (T98G) were maintained in growth medium as described above. […] The cells were allowed to attach and grow for 24 h, and then treated with serial dilutions of the drug for 72 h. After treatment, viable cells were measured by an MTS assay using the CellTiter 96 AQueous kit (Promega) as per manufacturer's instructions. […] The cells were allowed to attach and grow for 24 h and treated with serial dilutions of the drug for 240 h. After treatment, viable cells were measured using the CyQUANT cell proliferation assay kit (Invitrogen) as per manufacturer's instructions.
(§3) Toxicity. It was assumed that inhibition of APE-1 activity would be lead to toxicity since genetic deletion of the protein is lethal to cells. […] The toxicities were also determined in combination with the DNA minor groove methylating agent, MeLex. MeLex efficiently and selectively generates N3-methyladenine, which is converted into an abasic site by a BER glycosylase and/or hydrolytic depurination. The T98G cell line is relatively resistant to DNA damaging anticancer agents due to expression of multiple drug resistance proteins and O^6-alkylguanine-DNA alkyltransferase. […] A goal of the development of APE-1 inhibitors is to determine if they can be used to enhance the activity of DNA alkylating agents.

Another test concerns VERA kidney cell line. The note with it: read-out: IC50 for the toxicity; cited from earlier work.
Test [5] deals with T1, APE-1. As to the kind of experiment: Displacement of 4 from APE-1 by E3330 (fluorescence). Format: binding. The settings on record: 6 μM 4, 1 μM APE-1. As for the experimental part:
(§4) Fluorescence and UV Spectrometry Binding Studies. The fluorescence spectra were measured at room temperature on a Cary Eclipse fluorescence spectrometer (Varian, Palo Alto, Calif.). The fluorescence properties of 1 and 4 were measured in 10 mM HEPES, 0.5 mM MgCl2, 100 mM KCl, 100 mM NaCl, 2% glycerol, in absence or presence of wild type (unmodified) hairpin DNA (5′-[…]-3′) or THF-modified hairpin DNA (5′-CGAXTTCGCAGGACCGAATTCG-3′) or APE-1 protein. A solution of 0.5 μM of either DNA sequence was titrated against 1-10 μM ethidium bromide (EtBr) to determine saturation of EtBr by fluorescence (530 nm excitation with 610 nm emission) and the subsequent displacement of EtBr (4 μM) by 1-20 μM 1 or 4 was also assayed. The APE protein-inhibitor binding fluorescence was assayed by titrating 0.1-20 μM of 4 against 1 μM of APE-1 protein.
Interaction of Inhibitors with APE-1 Protein. To establish whether there is a direct interaction between an inhibitor and APE-1, the fluorescence spectra of 4 was determined in the absence and presence of increasing amounts of the protein.

The subject of test [6] is T98G cells. As to the kind of experiment: Short term (72 h) MTS cytotoxicity assay. Format: cell-based, human. The note with it: 72 h MTS assay. Here is the method:
as §2, §3
(Tetrazolium dyes change colour on reduction, which living cells bring about.)

Test [7] deals with T98G cells. As to the kind of experiment: Potentiation of MeLex cytotoxicity, short term (72 h) MTS assay. The settings on record: 72 h MTS assay. Format: cell-based, human. Here is the method: (§5) Cytotoxic Potentiation of Various DNA Damaging Agents. T98G cells maintained in growth medium were resuspended in fresh growth medium and seeded into 96-well plates at 2000 cells/well (short term cytotoxicity) or 100 cells/well (long term cytotoxicity) as described in the previous section. After 24 h, the cells were treated with serial dilutions of various DNA damaging drugs in absence or presence of APE-1 inhibitors. At the end of the treatment period, cell survival was assayed using CellTiter 96 AQueous or CyQUANT kits for the short- and long-term studies respectively.
as §3

In test [8] the test system is T98G cells. As to the kind of experiment: Potentiation of MeLex cytotoxicity, long term (10 d) CyQUANT assay. It is filed as cell-based, human. The note with it: LD10 concentration. As for the experimental part: as §5, §3
Test [9] deals with aldehyde reactive sites in genomic DNA from T98G cells. Format: cell-based, human. The note with it: for effect on ARS: 0.25 μM compound alone; for level of ARS in combination with MeLex: 80 μM MeLex + 0.25 μM compound, after 6 h.
Description: Quantification of Abasic Sites. T98G cells maintained in growth medium, were harvested by Trypsin-EDTA treatment, resuspended in fresh growth medium at a density of 2.5×10^5 cells mL^−1, and 2 mL (5×10^5 cells) of this suspension was seeded into the wells of a sterile 6-well tissue culture plate. Cells were allowed to grow for 24 h, treated with the various compounds for different time points and/or at different concentrations. At the end of each treatment, adherent cells were harvested by trypsin-EDTA treatment and pooled with live and dead cells in culture supernatant. Pooled cells in suspension were pelleted by centrifugation, washed with 1×PBS and genomic DNA was isolated using the DNAzol reagent (Invitrogen). DNA in solution was quantified by UV absorbance (λ260 nm) using a Synergy H1 multiwell plate reader (BioTek, Winooski, Vt.). Abasic sites in purified DNA were then reacted with the biotin-conjugated aldehyde reactive probe (ARP), immobilized onto 96-well ELISA plates, and detected using horseradish peroxidase (HRP)-conjugated streptavidin using a colorimetric substrate as per manufacturer's instructions (Dojindo Molecular Technologies, Rockville, Md.).
The biotin tagged ARS are quantified using an avidin-biotin assay, followed by colorimetric detection with horseradish peroxidase conjugated to avidin.
Test [10] deals with HEYC-2 ovarian tumor cells. The note with it: read-out: IC50 for cell growth; cited from earlier work.
Test [11] has as its system SKOV-3X ovarian tumor cells. The note with it: read-out: IC50 for cell growth; cited from earlier work.
The next test deals with THF modified hairpin DNA. Nature of the test: EtBr fluorescence titration with hairpin DNA. It is filed as binding. As for the experimental part: as §4, with “(5′-[…]-3′)” for “(5′-CGAXTTCGCAGGACCGAATTCG-3′)”
(§6) Interaction of Inhibitors with DNA. A potential mechanism by which compounds can block APE-1 activity involves the interaction with the DNA substrate by intercalation. Such binding to DNA could sterically reduce the accessibility of the protein to the abasic site substrate. […] To further probe the potential role of intercalation, the effect of EtBr on the fluorescence of 1 and 4 were determined. […] The small changes in the fluorescence of 4 with both DNAs indicate little discrimination for the THF lesion.

Another test addresses unmodified hairpin DNA. As to the kind of experiment: EtBr fluorescence titration with hairpin DNA. It is filed as binding. As for the experimental part: as §4, with “(5′-[…]-3′)” for “(5′-CGAXTTCGCAGGACCGAATTCG-3′)”
as §6

Another test concerns the target double-stranded DNA. The settings on record: cited from earlier work.
In test [12] the test system is T98G cells. Nature of the test: MTT toxicity assay in T98G glioma cells. Format: cell-based, human. The note with it: FIG. 3(a). Here is the method: FIGS. 3(a)-(b). […] (b) Toxicity of MeLex (efficiently generates 3-mA) in the absence (o) and presence of 50 nM ( ) or 250 nM (∇) inhibitor 4.
Toxicity of APE1 Inhibitors in T98G Glioma Cells—A short term (MTT assay) and long term (clonogenic assay) dose response toxicity for the inhibitors was performed in T98G glioma cells in the absence of a DNA alkylating agent. This cell line was selected because it is quite resistant to many DNA alkylating agents; therefore, it represents a good model to test the potential effect of APE1 inhibition on the toxicity of DNA damaging compounds.

Chain of APE-1 activity in T98G cell nuclear lysates (P27695 whole entry, stated change not applied): as the sequence (P27695 whole entry) above

Consider `Cc1cc(N/N=C/c2ccc3c(c2)OCO3)c2cc3c(cc2n1)OCO3` [Compound 3], for which the Ki on APE-1 [1] was 190 nM; in test [3] it was 280 nM. Further, the IC50 on APE-1 [2] is 2900 nM; in the test with T98G cells [4] (Homo sapiens, T98G, assay not stated, read-out: toxicity observed in the glioma T98G line), 540 nM; in the test with VERA kidney cell line it was 630 nM.

For the compound `CCCCCCCCC/C(=C\C1=C(C)C(=O)C(OC)=C(OC)C1=O)C(=O)O` [Compound E3330], the “E3330 concentration for approximately 50% decrease in the fluorescence of 4” value on APE-1 [5] is on record as “approximately 12 μM”. The LD10 concentration was 6.9 µM in the test on T98G cells [6] and 14.80 µM with T98G cells [4] (long term assay). In the test on T98G cells [7], the “LD50 of MeLex in the presence of LD10 concentration of inhibitor” value amounted to 128 µM. Besides, the “potentiating the toxicity of MeLex” value in the test with T98G cells [8] is on record as “little or no contribution”. Further, the “effect on ARS” value in [9] was “returned to control levels by 18 h”. Further, the “level of ARS in combination with MeLex” value in [9] is on record as “dropped off”. The IC50 in test [10] and in [11] was ~35000 nM throughout.

Consider `CC[n+]1c(-c2ccccc2)c2cc(N)ccc2c2ccc(N)cc21` [EtBr, ethidium bromide], for which, on APE-1 [1], the inhibitory constant (Ki) amounted to 1800 nM. Besides, the Kd on THF modified hairpin DNA was 1800 nM; at unmodified hairpin DNA, 1600 nM; on double-stranded DNA, ~1000 nM. Further, the “effect on ARS” value in test [9] is “no effect”. Further, the “level of ARS in combination with MeLex” value in [9] is given as “dropped off”.

`CCn1c2ccccc2c2cc(/C=N/Nc3cc(C)nc4cc5c(cc34)OCO5)ccc21` [Inhibitor-1] came in with an LD50 in the test with T98G cells [12] of 960 nM.
